From patent US9534059B2, “TIKI inhibitors” (Children's Medical Center Corporation, priority 2012, dated 2017)

What was measured:
Assay type in all cases: in vivo
Tiki1 [1] = molecular target: T1, Tiki1 (Xenopus tropicalis, UniProt F6PTN1); test: Time course of Goosecoid expression in MO-injected embryos, whole mount in situ hybridization (FIG. 3G)
T1 construct: Thus the endogenous Tiki1 in the Organizer acts in both Wnt-producing and Wnt-responding cells; endogenous in cells; host or cells: Xenopus embryos (dorsal blastomeres / organizer)
T1 sequence (F6PTN1 24-480): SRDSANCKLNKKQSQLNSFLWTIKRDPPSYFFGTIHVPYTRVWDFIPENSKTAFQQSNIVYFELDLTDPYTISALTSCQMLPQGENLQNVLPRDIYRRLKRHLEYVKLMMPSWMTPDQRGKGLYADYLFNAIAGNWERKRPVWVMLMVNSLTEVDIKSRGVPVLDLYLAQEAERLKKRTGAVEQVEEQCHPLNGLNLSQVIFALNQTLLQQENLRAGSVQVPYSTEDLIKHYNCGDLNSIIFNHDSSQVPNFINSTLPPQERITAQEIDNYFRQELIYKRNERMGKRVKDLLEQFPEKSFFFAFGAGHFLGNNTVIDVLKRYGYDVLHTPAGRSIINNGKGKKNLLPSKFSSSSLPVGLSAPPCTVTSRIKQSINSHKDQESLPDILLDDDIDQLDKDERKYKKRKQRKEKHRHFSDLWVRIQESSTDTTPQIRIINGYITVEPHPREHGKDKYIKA
Procedure: (G) Tiki1MO reduced SO-specific Goosecoid expression at stage 11 but not prior to stage 10.5. Time course of Gsc expression was examined between stage 8.5 and 11. 20 ng of Tiki1MO or control MO was injected into two dorsal blastomeres at the 8-cell stage. After Injection embryos were cultured at 22° C. till indicated stages, and were subjected to whole mount in situ hybridization (vegetal view with dorsal up).
Procedures for embryo manipulation, reverse transcription PCR and in situ hybridization were performed as previously described (Tamai et al., 2000). The arrayed Xenopus tropicalis full length cDNAs (Voigt et al., 2005) were used for the screening as performed previously (Kato et al., 2002). cDNA pools (in the CS107 vector) that contain 96 independent clones were transcribed in vitro using SP6 polymerase, and the resulting mRNA pools were injected into the dorsal side of the embryo at 4-cell stage at the dose of 10 ng RNA/embryo. Injected embryos were scored at stage 30-31 for enlarged or diminished anterior development. The positive pools were divided into smaller pools and the same process was repeated till a single cDNA was identified.
The following morpholino oligonucleotides were used: Tiki1 MO: 5′-[…]-3′ (SEQ ID NO:33); standard control MO: 5′-[…]-3′ (SEQ ID NO:34) (Gene Tools, LLC). RT-PCR primers for XTiki1: Forward, 5′-[…]-3′(SEQ ID NO:35), Reverse, 5′-[…]-3′(SEQ ID NO:36); human TIKI1: Forward, 5′-[…]-3′(SEQ ID NO:37), Reverse, 5′-[…]-3′(SEQ ID NO:38); human TIKI2: Forward, 5′-[…]-3′(SEQ ID NO:39), Reverse, 5′-[…]-3′(SEQ ID NO:40).
Further, injection of Tiki1MO in two dorsal blastomeres of 8-cell stage embryos suppressed the expression of head organizer genes including Goosecoid (Gsc), Lim1, Otx2, and Dkk1 in gastrula stage embryos (stages 10.5-11) (FIG. 3D and Table 1). […] HA*Tiki1 mRNA injection rescued the effect of Tiki1MO on all head organizer genes examined (FIG. 3D and Table 1). […] Consistently, Tiki1 inhibited Xwnt8 posterizing effect when both were co-expressed dorsally via injected plasmids, which zygotically express Tiki1 and Xwnt8, respectively, after mid-blastula transition (FIG. 3H).

Tiki1 [2] = molecular target: T1, Tiki1; test: Tiki1MO loss-of-function phenotype scoring in embryos; details: 20 ng into two dorsal blastomeres of 8-cell stage embryos
Procedure: 20 ng of control MO, Tiki1MO or Tiki1MO together with 50 pg of HA-Tiki1 mRNA was injected into two dorsal blastomeres at the 8-cell stage and the phenotype was scored at stage 42. Lateral view (left) and dorso-anterior view (right) are shown. Con, control.
(C) Statistical data of the Tiki1MO phenotype.
(§1) 20 ng of Tiki1MO were injected into two dorsal blastomeres of 8-cell stage embryos. […] Co-injection of HA*Tiki1 mRNA rescued Tiki1MO phenotypes (FIGS. 3B and 3C). Supporting a role of Tiki1 in Wnt inhibition during head formation, Dkk1 mRNA injection also rescued Tiki1MO anterior deficiency phenotypes (FIG. 3E).

Tiki1 [3] = molecular target: T1, Tiki1; test: MO block of Tiki1 protein synthesis in animal caps, Western blotting; details: animal caps stage 10
Procedure: (A) 500 pg mRNA for Tiki1-FLAG (targeted by MO) or HA*Tiki1 (resistant to MO) were injected with or without the Tiki1MO (5, 10, 20, 40 ng) into the animal pole at the 2-cell stage, and animal caps were dissected at stage 10 for Western blotting. MO, morpholino antisense oligonucleotide.
as §1

For “Tiki1 MO: morpholino antisense oligonucleotide against Tiki1, 5′-CCAAATGATTACCATCATAGCTCAG-3′ (SEQ ID NO:33) (all phosphorodiamidate morpholino (PMO))”, the “Whole embryos displaying change in Goosecoid expression: Absent, Percentage (%)” value (Tiki1 [1]; stage 8.5, 20 ng MO) was 0%, the “Whole embryos displaying change in Goosecoid expression: NC (No Change), Percentage (%)” value (Tiki1 [1]; stage 8.5, 20 ng MO) was 100% and the “Whole embryos displaying change in Goosecoid expression: Reduced, Percentage (%)” value (Tiki1 [1]; stage 8.5, 20 ng MO) was 0%. The “Whole embryos displaying change in Goosecoid expression: Absent, Percentage (%)” value (Tiki1 [1]; stage 9.5, 20 ng MO) was 13%, the “Whole embryos displaying change in Goosecoid expression: NC (No Change), Percentage (%)” value (Tiki1 [1]; stage 9.5, 20 ng MO) was 87% and the “Whole embryos displaying change in Goosecoid expression: Reduced, Percentage (%)” value (Tiki1 [1]; stage 9.5, 20 ng MO) was 0%. The “Whole embryos displaying change in Goosecoid expression: Absent, Percentage (%)” value (Tiki1 [1]; stage 10, 20 ng MO) was 15%, the “Whole embryos displaying change in Goosecoid expression: NC (No Change), Percentage (%)” value (Tiki1 [1]; stage 10, 20 ng MO) was 85% and the “Whole embryos displaying change in Goosecoid expression: Reduced, Percentage (%)” value (Tiki1 [1]; stage 10, 20 ng MO) was 0%. The “Whole embryos displaying change in Goosecoid expression: Absent, Percentage (%)” value (Tiki1 [1]; stage 10.5, 20 ng MO) was 5%, the “Whole embryos displaying change in Goosecoid expression: NC (No Change), Percentage (%)” value (Tiki1 [1]; stage 10.5, 20 ng MO) was 80% and the “Whole embryos displaying change in Goosecoid expression: Reduced, Percentage (%)” value (Tiki1 [1]; stage 10.5, 20 ng MO) was 15%. The “Whole embryos displaying change in Goosecoid expression: Absent, Percentage (%)” value (Tiki1 [1]; stage 11, 20 ng MO) was 48%, the “Whole embryos displaying change in Goosecoid expression: NC (No Change), Percentage (%)” value (Tiki1 [1]; stage 11, 20 ng MO) was 27% and the “Whole embryos displaying change in Goosecoid expression: Reduced, Percentage (%)” value (Tiki1 [1]; stage 11, 20 ng MO) was 25%. For the same substance, the “Injected embryos that developed anterior defects” value (Tiki1 [2]) was “roughly 50%”, the “Synthesis of exogenously expressed Tiki1-FLAG” value (Tiki1 [3]; 5, 10, 20, 40 ng MO) was “specifically blocked the synthesis” and the “Synthesis of HA*Tiki1 (mRNA lacking the MO complementary sequence)” value (Tiki1 [3]) was “unable to block the synthesis”.
